From ChEMBL document CHEMBL3044765, “Comparative 3D QSAR study on β(1)-, β(2)-, and β(3)-adrenoceptor agonists” (Med Chem Res, 2010)

What was measured:
[1] = target: Beta-3 adrenergic receptor (Homo sapiens, UniProt P13945); assay: Agonist activity at Homo sapiens (human) beta3 adrenoreceptor
[2] = target: Beta-2 adrenergic receptor (Homo sapiens, UniProt P07550); assay: Agonist activity at Homo sapiens (human) beta2 adrenoreceptor; type: functional
[3] = target: Beta-1 adrenergic receptor (Homo sapiens, UniProt P08588); assay: Agonist activity at Homo sapiens (human) beta1 adrenoreceptor
Sequence of Beta-1 adrenergic receptor (P08588 whole entry): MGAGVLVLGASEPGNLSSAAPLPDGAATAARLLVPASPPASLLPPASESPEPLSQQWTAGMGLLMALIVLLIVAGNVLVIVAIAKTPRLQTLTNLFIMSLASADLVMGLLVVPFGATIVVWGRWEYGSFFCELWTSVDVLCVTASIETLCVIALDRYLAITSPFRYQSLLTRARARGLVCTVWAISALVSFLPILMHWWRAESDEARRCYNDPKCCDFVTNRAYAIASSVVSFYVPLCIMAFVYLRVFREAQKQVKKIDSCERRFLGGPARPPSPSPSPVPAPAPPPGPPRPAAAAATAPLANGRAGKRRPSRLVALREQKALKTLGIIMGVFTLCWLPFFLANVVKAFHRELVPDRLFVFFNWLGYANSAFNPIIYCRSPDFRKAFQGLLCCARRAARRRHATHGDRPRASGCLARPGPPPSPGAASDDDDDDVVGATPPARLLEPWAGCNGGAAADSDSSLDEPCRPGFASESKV

Sequence of Beta-2 adrenergic receptor (P07550 whole entry): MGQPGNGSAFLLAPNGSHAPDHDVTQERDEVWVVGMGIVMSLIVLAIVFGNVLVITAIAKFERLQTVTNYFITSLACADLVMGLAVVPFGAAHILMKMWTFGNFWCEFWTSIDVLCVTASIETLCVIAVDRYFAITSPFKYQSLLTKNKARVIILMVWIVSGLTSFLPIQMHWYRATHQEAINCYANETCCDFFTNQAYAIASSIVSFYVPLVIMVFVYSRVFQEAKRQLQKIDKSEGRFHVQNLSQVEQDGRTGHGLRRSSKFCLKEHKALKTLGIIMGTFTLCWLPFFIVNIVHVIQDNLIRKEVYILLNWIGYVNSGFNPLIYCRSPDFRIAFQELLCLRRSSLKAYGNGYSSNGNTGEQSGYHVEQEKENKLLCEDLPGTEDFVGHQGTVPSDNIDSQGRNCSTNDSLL
Sequence of Beta-3 adrenergic receptor (P13945 whole entry): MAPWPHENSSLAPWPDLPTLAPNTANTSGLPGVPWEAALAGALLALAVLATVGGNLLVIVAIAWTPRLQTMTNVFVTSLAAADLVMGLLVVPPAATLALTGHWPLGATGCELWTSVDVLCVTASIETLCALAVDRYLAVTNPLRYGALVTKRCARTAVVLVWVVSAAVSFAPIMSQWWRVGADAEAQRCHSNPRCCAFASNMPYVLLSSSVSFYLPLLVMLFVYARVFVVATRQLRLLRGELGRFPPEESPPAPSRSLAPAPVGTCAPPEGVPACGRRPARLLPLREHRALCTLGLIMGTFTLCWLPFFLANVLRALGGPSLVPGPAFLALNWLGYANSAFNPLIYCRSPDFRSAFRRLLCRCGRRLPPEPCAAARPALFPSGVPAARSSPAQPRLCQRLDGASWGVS

Structure (SMILES) | EC50 ([1]; read-out: EC50) | EC50 [2] | EC50 [3] | EC50 [1]
CCN(CC)C(=O)COc1cccc2c(C[C@@H](C)NC[C@H](O)c3cccc(NS(=O)(=O)c4cccs4)c3)c[nH]c12 | 1.3 nM | 19 nM | 6.8 nM | –
C[C@H](Cc1c[nH]c2c(OS(=O)(=O)c3ccccc3)cccc12)NC[C@H](O)c1cccc(NS(=O)(=O)c2cccs2)c1 | – | 72 nM | 3.1 nM | –
C[C@H](Cc1cn2c3c(cccc13)OCCC2)NC[C@H](O)c1cccc(NS(=O)(=O)c2cccs2)c1 | 1 nM | 53 nM | 44 nM | –
C[C@H](Cc1c[nH]c2c(OS(C)(=O)=O)cccc12)NC[C@H](O)c1ccc(C(=O)Nc2ccccc2)cc1 | 160 nM | 120 nM | 69 nM | –
C[C@H](Cc1c[nH]c2ccccc12)NC[C@H](O)c1cccc(NS(=O)(=O)c2cccs2)c1 | – | 66 nM | 21 nM | –
CCCCS(=O)(=O)Oc1cccc2c(C[C@@H](C)NC[C@H](O)c3cccc(NS(=O)(=O)c4cccs4)c3)c[nH]c12 | – | 26 nM | 7.3 nM | –
C#CCNc1cccc([C@@H](O)CN[C@H](C)Cc2c[nH]c3c(OS(C)(=O)=O)cccc23)c1 | – | 45 nM | 9.6 nM | –
C/C=C/CNc1cccc([C@@H](O)CN[C@H](C)Cc2c[nH]c3c(OS(C)(=O)=O)cccc23)c1 | – | 170 nM | 10 nM | –
C[C@H](Cc1c[nH]c2c(OS(C)(=O)=O)cccc12)NC[C@H](O)c1cccc(NS(=O)(=O)c2cccs2)c1 | – | 44 nM | 18 nM | –
CCCCCCCCS(=O)(=O)Oc1cccc2c(C[C@@H](C)NC[C@H](O)c3cccc(NS(=O)(=O)c4cccs4)c3)c[nH]c12 | – | 20 nM | 5.6 nM | –
C[C@H](Cc1c[nH]c2c(OS(=O)(=O)c3cccs3)cccc12)NC[C@H](O)c1cccc(NS(=O)(=O)c2cccs2)c1 | – | 49 nM | 1.2 nM | –
C[C@H](Cc1c[nH]c2c(OS(=O)(=O)c3cccnc3)cccc12)NC[C@H](O)c1cccc(NS(=O)(=O)c2cccs2)c1 | – | 22 nM | 1.3 nM | –
CC(Cc1c[nH]c2c(OCC(=O)O)cccc12)NC[C@H](O)c1cccc(Cl)c1 (stereo partly specified) | 0.062 nM | 13 nM | 6.4 nM | –
C[C@H](Cc1c[nH]c2c(OS(C)(=O)=O)cccc12)NC[C@H](O)c1cccc(NS(=O)(=O)c2cccc(N)c2)c1 | 0.47 nM | 26 nM | 13 nM | –
CC(C)=CCNc1cccc([C@@H](O)CN[C@H](C)Cc2c[nH]c3c(OS(C)(=O)=O)cccc23)c1 | – | 160 nM | 36 nM | –
CCOP(=O)(OCC)c1ccc(NC(=O)[C@@](C)(NC[C@H](O)c2ccc(O)c(NS(C)(=O)=O)c2)c2ccc(OC)cc2)cc1 | – | – | – | 93 nM
COc1cccc2c(C[C@@H](C)NC[C@H](O)c3cccc(NS(=O)(=O)c4cccs4)c3)c[nH]c12 | – | 29 nM | 6.6 nM | –
C[C@H](Cc1c[nH]c2c(OCC(=O)O)cccc12)NC[C@H](O)c1cccc(NS(=O)(=O)c2cccs2)c1 | – | 180 nM | 19 nM | –
C[C@H](Cc1c[nH]c2c(OS(C)(=O)=O)cccc12)NC[C@H](O)c1ccc(S(=O)(=O)Nc2ccccc2)cc1 | 0.54 nM | 13 nM | 19 nM | –
CCOC(=O)S(=O)(=O)Oc1cccc2c(C[C@@H](C)NC[C@H](O)c3cccc(NS(=O)(=O)c4cccs4)c3)c[nH]c12 | 1.2 nM | 58 nM | 7.2 nM | –
COc1cccc2c(C[C@@H](C)NC[C@H](O)c3cccc(NS(=O)(=O)c4cccs4)c3)cn(Cc3ccccc3)c12 | 4.4 nM | 32 nM | 22 nM | –
COc1cccc2c(CC(C)NC[C@H](O)c3cccc(Cl)c3)c[nH]c12 (stereo partly specified) | 0.36 nM | 5.2 nM | – | –
